Experimental findings from US5585382A, “Polycyclic and heterocyclic chromophores for bis-imide tumoricidals” (The DuPont Merck Pharmaceutical Company, priority 1995, dated 1996) are described below.

In brackets after ≈: the same amount, converted by molar mass. Read-outs that look alike come from different tables or passages of the source.

Experiment [1] has as its system Murine leukemia L1210 cells. Briefly: In vitro growth inhibition of L1210 cells (MTT, 72 hr). The format is cell-based. The note with it: Mus musculus, read-out: L1210 IC50. The method, then: (§1) The reagents for tissue culture were purchased from GIBCO (Grand Island, N.Y.). 5-Dimethylthiazol-2-yl)-2,5-diphenyl tetrazolium bromide (MTT) was purchased from Sigma Chemical Company (St. Louis, Mo.). All agents were prepared as 2 mg/ml stock solutions in DMSO. MTT was prepared as a 1 mg/ml stock solution in Dulbecco's phosphate buffered saline (PBS). All stocks were stored frozen in the dark at -20° C.
(§2) Clone A human colon cancer cells were isolated from the heterogeneous DLD-1 colon tumor line and maintained as previously described (Dexter, D. L.; Barbosa, J. A.; Calabresi, P. Cancer Research 1979, 39, 1020; Dexter, D. L.; Spremulli, E. M.; Fligiel, A.; Barbosa, J. A.; Vogel, R.; Van Vorhees, A.; Calabresi, P. Am. J. Med. 1981, 71, 949.). Murine leukemia L1210 cells were maintained in RPMI-L medium as described (Chen, S.-F.; Ruben, R. L.; Dexter, D. L. Cancer Research 1986, 46, 5014.). All cell lines were incubated at 37° C. in a humidified atmosphere of 5% CO2 -95% air.
(§3) Exponentially growing L1210 cells (1×10^3), or Clone A cells (8×10^2) in 0.1 ml medium were seeded in a 96-well microtiter plate on day 0. On day one, 0.1 ml aliquots of medium containing graded concentrations of test compounds were added to the cell plates. After incubation at 37° C. in a humidified incubator for 72 hr, the plates containing L1210 cells were centrifuged briefly and 100 μl of the growth medium was removed. Cell cultures were incubated with 50 μl of MTT for 4 h at 37° C. (12). The resulting purple formazan precipitate was solubilized with 200 μl of 0.04 N HCl in isopropyl alcohol. Absorbance was read in a Titertek Multiskan MCC scanning well spectrophotometer (Flow Laboratories) at a test wavelength of 570 nm and a reference wavelength of 630 nm. The absorbances were stored on a floppy disk on an IBM-XT and uploaded onto a VAX computer. IC50 values were determined by a computer program that fit the data to the following equation:
(§4) Y=((Am -Ao)/(1+(X/IC50)^n))+Ao
(§5) where Am =absorbance of the control cells; Ao =absorbance of the cells in the presence of highest compound concentration; Y=observed absorbance; X=compound concentration; IC50 =dose of compound that inhibits the number of population doublings of cells to one half that of the number of population doublings of the control cells; and n equals the slope of the straight portion of the curve.
(§6) The values reported in the table are from at least one experiment performed in eight replicates. If more than one experiment was performed, the number reported is the average of all the trials

Experiment [2] deals with Clone A human colon cancer cells. The experiment in a line: In vitro growth inhibition of Clone A cells (MTT, 72 hr). The format is cell-based. The note with it: read-out: Clone A IC50. As to the method: as §1, §2, §3, §4, §5, §6

One may read the IC50 as the midpoint of a concentration-inhibition curve. With `O=C1c2cccc3c2c(c(-c2ccccc2)c2ccccc23)C(=O)N1CCCCNCCCN1C(=O)c2cccc3c2c(c(-c2ccccc2)c2ccccc23)C1=O` [Example 48, 4-[3-(9-Phenylphenanthrene-1,10-dicarboximido)propylamino]-1-(9-phenylphenanthrene-1, 10-docarboximido)butane Hydromethanesulfonate], the IC50 in experiment [1] (L1210, 72 h) was determined as 0.773 µg/mL; in experiment [2] (72 h), 1.46 µg/mL.

Take `CS(=O)(=O)O.CS(=O)(=O)O.C[C@H](CNCCNC[C@@H](C)N1C(=O)c2cccc3c2c(cc2cccnc23)C1=O)N1C(=O)c2cccc3cc([N+](=O)[O-])cc(c23)C1=O` [Example 110, (R,R)-1-[2-(5-Azaphenanthrene-1,10-dicarboximido)propylamino]-2-[2-(3-nitronaphthalene-1,8-dicarboximido)propylamino]ethane Dihydromethanesulfonate]: the IC50 was 0.183 µg/mL in experiment [1] (L1210 cells, 72 hr, MTT) and 0.006 µg/mL in experiment [2] (Clone A cells, 72 hr, MTT).

On to `CS(=O)(=O)O.CS(=O)(=O)O.C[C@@H](CNCCNC[C@H](C)N1C(=O)c2cccc3c2c(cc2ccc([N+](=O)[O-])cc23)C1=O)N1C(=O)c2cccc3c2c(cc2ccc([N+](=O)[O-])cc23)C1=O` [Example 52, (S,S)-1,2-bis-[2-(6-Nitrophenanthrene-1,10-dicarboximido)propylamino]ethane Dihydromethanesulfonate], for which the IC50 amounted to 0.082 µg/mL in experiment [1] (L1210, 72 h) and 0.044 µg/mL in experiment [2] (72 h).

`CS(=O)(=O)O.CS(=O)(=O)O.C[C@H](CNCCNC[C@@H](C)N1C(=O)c2cccc3c4c(cc(c23)C1=O)C(=O)c1ccccc1C4=O)N1C(=O)c2cccc3c4c(cc(c23)C1=O)C(=O)c1ccccc1C4=O` [Example 101, (R,R)-1,2-bis-[2-(7,12-Dihydro-7,12-dioxobenz[a]anthracene-4,5-dicarboximido)propylamino]ethane Dihydromethanesulfonate]: the IC50 in experiment [1] (L1210 cells, 72 hr, MTT) was determined as 0.105 µg/mL; in experiment [2] (Clone A cells, 72 hr, MTT), 0.05 µg/mL.

Turning to `CS(=O)(=O)O.Cc1ccc2cc3c4c(cccc4c2c1)C(=O)N(CCCCNCCCN1C(=O)c2cccc4c2c(cc2ccc(C)cc24)C1=O)C3=O` [Example 41, 4-[3-(6-Methylphenanthrene-1,10-dicarboximido)propylamino]-1-(6-methylphenanthrene-1, 10-dicarboximido)butane Hydromethanesulfonate], the IC50 in experiment [1] (L1210, 72 h) stood at 0.317 µg/mL; in experiment [2] (72 h), 0.804 µg/mL.

For `CS(=O)(=O)O.CS(=O)(=O)O.C[C@H](CNCCNC[C@@H](C)N1C(=O)c2cc([N+](=O)[O-])cc3c2c(cc2ncccc23)C1=O)N1C(=O)c2cccc3cc([N+](=O)[O-])cc(c23)C1=O` [Example 116, (R,R)-1-[2-(3-Nitro-8-azaphenanthrene-1,10-dicarboximido)propylamino]-2-[2-(3-nitronaphthalene-1,8-dicarboximido)propylamino]ethane Dihydromethanesulfonate], the IC50 in experiment [1] (L1210, 72 h) is 0.012 µg/mL; in experiment [2] (72 h), 0.003 µg/mL.

Consider `C[C@H](CNCCNC[C@@H](C)N1C(=O)c2cccc3c2c(cc2ccc(C(F)(F)F)cc23)C1=O)N1C(=O)c2cccc3cc([N+](=O)[O-])cc(c23)C1=O` [Example 121], for which the IC50 in experiment [1] (L1210, 72 h) was determined as 0.397 µg/mL (≈ 0.569 µM); in experiment [2] (72 h) it was 0.032 µg/mL (≈ 0.0459 µM).

With `CS(=O)(=O)O.O=C1c2cccc3c2c(cc2cc([N+](=O)[O-])cnc23)C(=O)N1CCCCNCCCN1C(=O)c2cccc3c2c(cc2cc([N+](=O)[O-])cnc23)C1=O` [Example 11, 4-[3-(7-Nitro-5-azaphenanthrene-1,10dicarboximido)propylamino]-1-(7-nitro-5-azaphenanthrene-1, 10-dicarboximido)butane Hydromethanesulfonate], the IC50 is 0.171 µg/mL in experiment [1] (L1210, 72 h) and 0.543 µg/mL in experiment [2] (72 h).

On to `COc1ccc2c(c1)cc1c3c(cccc32)C(=O)N(CCCCNCCCN2C(=O)c3cccc4c3c(cc3cc(OC)ccc34)C2=O)C1=O.CS(=O)(=O)O` [Example 54, 4-[3-(7-Methoxyphenanthrene-1,10-dicarboximido)propylamino]-1-(7-methoxyphenanthrene-1,10-dicarboximido)butane Hydromethanesulfonate], for which the IC50 in experiment [1] (L1210, 72 h) was 0.198 µg/mL; in experiment [2] (72 h) it was 0.615 µg/mL.

Consider `CS(=O)(=O)O.Cc1cnc2c(c1)cc1c3c(cccc32)C(=O)N(CCCCNCCCN2C(=O)c3cccc4c3c(cc3cc(C)cnc34)C2=O)C1=O` [Example 10, 4-[3-(7-Methyl-5-azaphenanthrene-1,10-dicarboximido)propylamino]-1-(7-methyl-5-azaphenanthrene-1, 10-dicarboximido)butane Hydromethanesulfonate], for which the IC50 came out at 0.588 µg/mL in experiment [1] (L1210 cells, 72 hr, MTT) and 0.346 µg/mL in experiment [2] (Clone A cells, 72 hr, MTT).

With `COc1ccc2cc3c4c(cccc4c2c1)C(=O)N([C@H](C)CNCCNC[C@@H](C)N1C(=O)c2cccc4cc([N+](=O)[O-])cc(c24)C1=O)C3=O` [Example 122], the IC50 was determined as 0.211 µg/mL (≈ 0.32 µM) in experiment [1] (L1210, 72 h) and 0.023 µg/mL (≈ 0.0349 µM) in experiment [2] (72 h).

Consider `O=C1c2cc([N+](=O)[O-])cc3c2c(cc2cnccc23)C(=O)N1CCCCNCCCN1C(=O)c2cc([N+](=O)[O-])cc3c2c(cc2cnccc23)C1=O` [Example 16, 4-[3-(3-Nitro-7-azaphenanthrene-1,10-dicarboximido)propylamino]-1-(3-nitro-7-azaphenanthrene-1, 10-dicarboximido)butane 2.6-Hydromethanesulfonate], for which the IC50 is < 0.01 µg/mL in experiment [1] (L1210, 72 h) and 0.002 µg/mL (≈ 0.00287 µM) in experiment [2] (72 h).

Consider `CS(=O)(=O)O.O=C1c2cccc3c2c(cc2occc23)C(=O)N1CCCCNCCCN1C(=O)c2cccc3c2c(cc2occc23)C1=O` [Example 90, 4-[3-(Naphtho[2,1-b]furan-5,6-dicarboximido)propylamino]-1-(naphtho[2,1-b]furan-5,6-dicarboximido)butane Hydromethanesulfonate], for which the half-maximal inhibitory concentration (IC50) was found to be 0.013 µg/mL in experiment [1] (L1210 cells, 72 hr, MTT) and 0.017 µg/mL in experiment [2] (Clone A cells, 72 hr, MTT).

With `CS(=O)(=O)O.O=C1c2cccc3c2c(cc2cccc([N+](=O)[O-])c23)C(=O)N1CCCCNCCCN1C(=O)c2cccc3c2c(cc2cccc([N+](=O)[O-])c23)C1=O` [Example 51, 4-[3-(5-Nitrophenanthrene-1,10-dicarboximido)propylamino]-1-(5-nitrophenanthrene-1, 10-dicarboximido)butane Hydromethanesulfonate], the IC50 in experiment [1] (L1210, 72 h) amounted to 0.205 µg/mL; in experiment [2] (72 h) it was 0.747 µg/mL.

Take `C[C@H](CNCCNC[C@@H](C)N1C(=O)c2cc([N+](=O)[O-])cc3c2c(cc2ccncc23)C1=O)N1C(=O)c2cccc3cc([N+](=O)[O-])cc(c23)C1=O` [Example 119, (R,R)-1-[3-Nitro-6-azaphenanthrene-1, 10-dicarboximido)propylamino]-2-[2-(3-nitronaphthalene-1,8-dicarboximido)propylamino]ethane Dihydromethanesulfonate]: the IC50 in experiment [1] (L1210, 72 h) is 0.044 µg/mL; in experiment [2] (72 h) it was 0.003 µg/mL.

Take `CS(=O)(=O)O.CS(=O)(=O)O.Cc1nc2cc3c4c(cccc4c2s1)C(=O)N([C@H](C)CNCCNC[C@@H](C)N1C(=O)c2cccc4c2c(cc2nc(C)sc24)C1=O)C3=O` [Example 83, (R,R) -1,2-bis-[2-(2-Methylnaphtho[2,1-d]thiazole-5,6-dicarboximido)propylamino]ethane Dihydromethanesulfonate]: the IC50 in experiment [1] (L1210 cells, 72 hr, MTT) is < 0.01 µg/mL; in experiment [2] (Clone A cells, 72 hr, MTT), 0.004 µg/mL.
